Earlier results as cited in PubChem BioAssay AID1259409 (Chemical Carcinogenesis Research Information System (CCRIS), 2018).

Test system: rodent chemically induced tumor inhibition, incidence and multiplicity
Assay: CCRIS tumor inhibitor studies
Conditions: for outcome: Carcinogen: 7,12-Dimethylbenz[a]anthracene, 57-97-6 and 12-O-Tetradecanoylphorbol-13-acetate, Dose [Inhibitor]: 50 ug/ml in acetone by topical application starting on the 16th wk and continuing to end of study (study duration: 30 wk, Route [Inhibitor]: Skin, Species: Mouse, Strain/Sex: Albino/Sex not given, Target Tissue: Type of Lesion: Skin, Dose [Carcinogen]: DMBA in acetone, 100 ug/ml, single topical dose, TPA in acetone, 10 ug/ml, topical administration twice a wk for 15 wk

CC1=C(/C=C/C(C)=C/C=C/C(C)=C\C(=O)O)C(C)(C)CCC1
tumour outcome (control, treated, inhibition, significance) (Carcinogen: 1,2-DIMETHYLHYDRAZINE, 540-73-8, Dose [Inhibitor]: 67 µM/G DIET, Route [Inhibitor]: ORAL, Species: RAT, Strain/Sex: SPRAGUE-DAWLEY/MALE, Target Tissue: Type of Lesion: COLON: TUMOR, Dose [Carcinogen]: 30 MG/KG BW 1/WK FOR 5 WK, Promoter: NONE USED): 20/20 (100%), 8/20 (40%), 60%, not calculated
tumour outcome (control, treated, inhibition, significance) (Carcinogen: 1,2-DIMETHYLHYDRAZINE, 5400-73-8, Dose [Inhibitor]: 67 UG/G DIET FED SIMULTANEOUSLY DURING CARCINOGEN TREATMENT (STUDY DURATION: 46 WK), Route [Inhibitor]: ORAL, Species: RAT, Strain/Sex: WISTAR/FEMALE, Target Tissue: Type of Lesion: COLON: ADENOCARCINOMA, Dose [Carcinogen]: 15 MG/KG BW/WK FOR 28 WK, Promoter: NONE USED): 8/12 (67%), 5/10 (50%), 25%, not significant
tumour outcome (control, treated, inhibition, significance) (Carcinogen: 1,2-DIMETHYLHYDRAZINE, 5400-73-8, Dose [Inhibitor]: 67 UG/G DIET FED SIMULTANEOUSLY DURING CARCINOGEN TREATMENT (STUDY DURATION: 46 WK), Route [Inhibitor]: ORAL, Species: RAT, Strain/Sex: WISTAR/FEMALE, Target Tissue: Type of Lesion: SMALL INTESTINE: ADENOCARCINOMA, Dose [Carcinogen]: 15 MG/KG BW/WK FOR 28 WK, Promoter: NONE USED): 8/12 (67%), 9/10 (90%), -34%, not significant
tumour outcome (control, treated, inhibition, significance) (Carcinogen: 3-METHYLCHOLANTHRENE, 56-49-5, Dose [Inhibitor]: 3 MG IN 0.1 ML ACETONE STARTING 2 WK AFTER START OF CARCINOGEN TREATMENT AND APPLIED 2/WK DURING WK 3-5 OF THE STUDY AND, Route [Inhibitor]: DERMAL, Species: MOUSE, Strain/Sex: SWISS/FEMALE, Target Tissue: Type of Lesion: SKIN: CARCINOMA, Dose [Carcinogen]: 0.1 ML OF 0.3% DISSOLVED IN ACETONE APPLIED 2/WK FIRST 5 WK THEN 1/WK FOR WK 6-9 FOLLOWED BY NO FURTHER TREATMENT THROUG, Promoter: NONE USED): 5/19 (26%), 2/20 (10%), 62%, not calculated
tumour outcome (control, treated, inhibition, significance) (Carcinogen: 3-METHYLCHOLANTHRENE, 56-49-5, Dose [Inhibitor]: 3 MG IN 0.1 ML ACETONE STARTING 2 WK AFTER START OF CARCINOGEN TREATMENT AND APPLIED 2/WK DURING WK 3-5 OF THE STUDY AND, Route [Inhibitor]: DERMAL, Species: MOUSE, Strain/Sex: SWISS/FEMALE, Target Tissue: Type of Lesion: SKIN: PAPILLOMA, Dose [Carcinogen]: 0.1 ML OF 0.3% DISSOLVED IN ACETONE APPLIED 2/WK FIRST 5 WK THEN 1/WK FOR WK 6-9 FOLLOWED BY NO FURTHER TREATMENT THROUG, Promoter: NONE USED): 9/19 (47%), 4/20 (20%), 57%, not calculated
outcome (16561-29-8, 16561-29-8): malignant lesions: 4/20 (20%), 4/20 (20%), not significant
outcome (16561-29-8, 16561-29-8, Promoter: None): malignant lesions: 5/20 (20%), 4/20 (20%), not significant
tumour outcome (control, treated, inhibition, significance) (Carcinogen: AZOXYMETHANE, 25843-45-2, Dose [Inhibitor]: 50 MG/KG DIET DAILY STARTING SIMULTANEOUSLY WITH CARCINOGEN TREATMENT AND CONTINUING THROUGH END OF STUDY (STUDY DURATIO, Route [Inhibitor]: ORAL, Species: RAT, Strain/Sex: SPRAGUE-DAWLEY/MALE, Target Tissue: Type of Lesion: LARGE INTESTINE: MALIGNANT TUMOR, Dose [Carcinogen]: 8 MG/KG BW 1/WK FOR 8 WK, Promoter: NONE USED): 90%, 90%, 0%, not significant
tumour outcome (control, treated, inhibition, significance) (Carcinogen: AZOXYMETHANE, 25843-45-2, Dose [Inhibitor]: 50 MG/KG DIET DAILY STARTING SIMULTANEOUSLY WITH CARCINOGEN TREATMENT AND CONTINUING THROUGH END OF STUDY (STUDY DURATIO, Route [Inhibitor]: ORAL, Species: RAT, Strain/Sex: SPRAGUE-DAWLEY/MALE, Target Tissue: Type of Lesion: SMALL INTESTINE: MALIGNANT TUMOR, Dose [Carcinogen]: 8 MG/KG BW 1/WK FOR 8 WK, Promoter: NONE USED): 90%, 83%, 8%, not significant
tumour outcome (control, treated, inhibition, significance) (Carcinogen: AZOXYMETHANE, 25843-45-2, Dose [Inhibitor]: 50 MG/KG IN DIET DAILY FOR 26 WK STARTING SIMULTANEOUSLY WITH CARCINOGEN TREATMENT (STUDY DURATION: 26 WK), Route [Inhibitor]: ORAL, Species: RAT, Strain/Sex: SPRAGUE-DAWLEY/MALE, Target Tissue: Type of Lesion: LARGE INTESTINE: MALIGNANT TUMOR, Dose [Carcinogen]: 8 MG/KG BW 1/WK FOR 8 WK, Promoter: NONE USED): 90%, 90%, 0%, not significant
tumour outcome (control, treated, inhibition, significance) (Carcinogen: AZOXYMETHANE, 25843-45-2, Dose [Inhibitor]: 50 MG/KG IN DIET DAILY FOR 26 WK STARTING SIMULTANEOUSLY WITH CARCINOGEN TREATMENT (STUDY DURATION: 26 WK), Route [Inhibitor]: ORAL, Species: RAT, Strain/Sex: SPRAGUE-DAWLEY/MALE, Target Tissue: Type of Lesion: SMALL INTESTINE: TUMOR, Dose [Carcinogen]: 8 MG/KG BW 1/WK FOR 8 WK, Promoter: NONE USED): 90%, 83%, 8%, not significant
tumour outcome (control, treated, inhibition, significance) (Carcinogen: BENZO[A]PYENE, 50-32-8, Dose [Inhibitor]: 17 NMOL 2/WK 0.5 HR BEFORE EACH PROMOTER APPLICATION FOR 24 WK STARTING 7 D AFTER CARCINOGEN APPLICATION (STUDY DURATION, Route [Inhibitor]: DERMAL, Species: MOUSE, Strain/Sex: SENCAR, Target Tissue: Type of Lesion: SKIN: PAPILLOMA, Dose [Carcinogen]: 400 NMOL ONCE, Promoter: ANTHRALIN, 1143-38-0): 73%, 83%, -14%, not significant
tumour outcome (control, treated, inhibition, significance) (Carcinogen: BENZO[A]PYENE, 50-32-8, Dose [Inhibitor]: 34 NMOL ONCE 0.5 HR BEFORE CARCINOGEN APPLICATION (STUDY DURATION: 25 WK), Route [Inhibitor]: DERMAL, Species: MOUSE, Strain/Sex: CD-1/FEMALE, Target Tissue: Type of Lesion: SKIN: PAPILLOMA, Dose [Carcinogen]: 200 NMOL IN 0.2 ML ACETONE ONCE 0.5 HR AFTER AGENT TREATMENT, Promoter: 12-O-TETRADECANOYLPHORBOL-13-ACETATE, 16561-29-8): 90%, 98%, -9%, not significant
tumour outcome (control, treated, inhibition, significance) (Carcinogen: BENZO[A]PYRENE, 50-32-8, Dose [Inhibitor]: 0, 240 MG/KG OF DIET FOR 6 WK (STUDY DURATION: 9 WK), Route [Inhibitor]: ORAL, Species: MOUSE, Strain/Sex: NIGP(S)/FEMALE, Target Tissue: Type of Lesion: LUNG: ADENOMA, Dose [Carcinogen]: 0.5 MG INJECTED IN THE SCAPULAR REGION OF NEWBORN MICE ONCE, Promoter: NONE USED): 35%, 55%, -57%, not calculated
tumour outcome (control, treated, inhibition, significance) (Carcinogen: BENZO[A]PYRENE, 50-32-8, Dose [Inhibitor]: 0, 240 MG/KG OF DIET FOR 6 WK (STUDY DURATION: 9 WK), Route [Inhibitor]: ORAL, Species: MOUSE, Strain/Sex: NIGP(S)/MALE, Target Tissue: Type of Lesion: LUNG: ADENOMA, Dose [Carcinogen]: 0.5 MG INJECTED IN THE SCAPULAR REGION OF NEWBORN MICE ONCE, Promoter: NONE USED): 48%, 42%, 13%, not calculated
tumour outcome (control, treated, inhibition, significance) (Carcinogen: N,N-DIMETHYLNITROSAMINE, 62-75-9, Dose [Inhibitor]: 240 MG/KG OF DIET DAILY FOR 3 WK STARTING 2 D AFTER CARCINOGEN TREATMENT AT 6 WK OF AGE AND THEN OBSERVED UNTIL DEATH (S, Route [Inhibitor]: ORAL, Species: RAT, Strain/Sex: WISTAR/FEMALE, Target Tissue: Type of Lesion: KIDNEY: MESENCHYMAL TUMOR, Dose [Carcinogen]: 40 MG/KG BW ONCE, Promoter: NONE USED): 22/27 (82%), 27/32 (84%), -2%, not significant
tumour outcome (control, treated, inhibition, significance) (Carcinogen: N,N-DIMETHYLNITROSAMINE, 62-75-9, Dose [Inhibitor]: 240 MG/KG OF DIET DAILY FOR 3 WK STARTING 2 D AFTER CARCINOGEN TREATMENT AT 6 WKOF AGE AND THEN OBSERVED UNTIL DEATH (ST, Route [Inhibitor]: ORAL, Species: RAT, Strain/Sex: WISTAR/FEMALE, Target Tissue: Type of Lesion: KIDNEY: EPITHELIAL TUMOR (ADENOMA, ADENOCARCINOMA), Dose [Carcinogen]: 40 MG/KG BW ONCE, Promoter: NONE USED): 13/27 (48%), 17/32 (53%), -10%, not significant
tumour outcome (control, treated, inhibition, significance) (Carcinogen: N,N-DIMETHYLNITROSAMINE, 62-75-9, Dose [Inhibitor]: 240 MG/KG OF DIET DAILY FOR 10 WK STARTING 2 D AFTER CARCINOGEN TREATMENT AT 6 WK OF AGE AND THEN OBSERVED UNTIL DEATH (, Route [Inhibitor]: ORAL, Species: RAT, Strain/Sex: WISTAR/FEMALE, Target Tissue: Type of Lesion: KIDNEY: EPITHELIAL TUMOR (ADENOMA, ADENOCARCINOMA), Dose [Carcinogen]: 40 MG/KG BW ONCE, Promoter: NONE USED): 13/27 (48%), 11/29 (38%), 21%, not significant
tumour outcome (control, treated, inhibition, significance) (Carcinogen: N,N-DIMETHYLNITROSAMINE, 62-75-9, Dose [Inhibitor]: 240 MG/KG OF DIET DAILY FOR 26 WK STARTING 2 D AFTER CARCINOGEN TREATMENT AT 6 WK OF AGE AND THEN OBSERVED UNTIL DEATH (, Route [Inhibitor]: ORAL, Species: RAT, Strain/Sex: WISTAR/FEMALE, Target Tissue: Type of Lesion: KIDNEY: EPITHELIAL TUMOR (ADENOMA, ADENOCARCINOMA), Dose [Carcinogen]: 40 MG/KG BW ONCE, Promoter: NONE USED): 13/27 (48%), 11/21 (52%), -8%, not significant
tumour outcome (control, treated, inhibition, significance) (Carcinogen: N,N-DIMETHYLNITROSAMINE, 62-75-9, Dose [Inhibitor]: 240 MG/KG OF DIET DAILY FOR 26 WK STARTING 2 D AFTER CARCINOGEN TREATMENT AT 6 WK OF AGE AND THEN OBSERVED UNTIL DEATH (, Route [Inhibitor]: ORAL, Species: RAT, Strain/Sex: WISTAR/FEMALE, Target Tissue: Type of Lesion: KIDNEY: MESENCHYMAL TUMOR, Dose [Carcinogen]: 40 MG/KG BW ONCE, Promoter: NONE USED): 22/27 (82%), 21/21 (100%), -22%, not significant
tumour outcome (control, treated, inhibition, significance) (Carcinogen: N-(4-(5-NITRO-2-FURYL)-2-THIAZOLYL)FORMAMIDE, 24554-26-5, Dose [Inhibitor]: 120 MG/KG DIET DAILY STARTING 1 WK AFTER COMPLETION OF CARCINOGEN TREATMENT AND CONTINUING UNTIL END OF STUDY (STUDY DUR, Route [Inhibitor]: ORAL, Species: RAT, Strain/Sex: F344/FEMALE, Target Tissue: Type of Lesion: URINARY BLADDER: CARCINOMA, Dose [Carcinogen]: 2 G/KG DIET DAILY FOR 10 WK, Promoter: NONE USED): 36/100 (36%), 42/100 (42%), -17%, p 0.135
